Data reported in PubChem BioAssay AID652001 (The Scripps Research Institute Molecular Screening Center, 2013).

Key:
[1] = target: Acyl-protein thioesterase 2 (Homo sapiens) (UniProt O95372); assay: LYPLA2 enzyme kinetics with inhibitors – biochemical, substrate-based fluorescence, Ki, Km, Vmax, late-stage follow-up (AID 652001); settings: recombinant LYPLA2, resorufin acetate hydrolysis fluorescence
LYPLA2 = assay: as above; settings: recombinant LYPLA2, resorufin acetate hydrolysis fluorescence, Ki from Cheng-Prusoff

Chain of Acyl-protein thioesterase 2 (Homo sapiens) (O95372 whole entry, looked up): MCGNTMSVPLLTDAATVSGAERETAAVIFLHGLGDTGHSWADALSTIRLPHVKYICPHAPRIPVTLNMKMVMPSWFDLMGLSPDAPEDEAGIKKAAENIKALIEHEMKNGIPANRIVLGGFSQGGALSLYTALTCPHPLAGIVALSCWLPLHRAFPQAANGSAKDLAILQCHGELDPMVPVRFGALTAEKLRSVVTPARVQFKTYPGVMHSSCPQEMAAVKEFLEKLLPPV

COc1ccc(N2CCN(C(=O)c3cc4c(s3)-c3ccccc3S(=O)(=O)C4)CC2)cc1
IC50 [1]: 510 nM | Ki (LYPLA2): 230 nM
